Laboratory results as given in ChEMBL document CHEMBL4351009, “hERG optimizations of IMB1603, discovery of alternative benzothiazinones as new antitubercular agents” (Eur J Med Chem, 2019).
In brackets after ≈: the same amount, converted by molar mass.

What was measured:
[1] = test system: Mycobacterium tuberculosis; assay: Antimycobacterial activity against Mycobacterium tuberculosis H37Rv infected in BALB/c mouse assessed as reduction in colony forming unit in lung at 25 mg/kg, po administered once daily for 5 days a week for 3 weeks; format: functional
[2] = test system: Mycobacterium tuberculosis; assay: Antimycobacterial activity against Mycobacterium tuberculosis H37Rv ATCC 27294 assessed as reduction in bacterial cell viability incubated for 7 days by microplate alamar blue assay; format: functional; details: H37Rv ATCC 27294, 168 h
[3] = biological target: hERG (KCNH2) (Homo sapiens, UniProt Q12809); assay: Inhibition of human ERG transfected in HEK293 cells at 10 uM by whole cell patch clamp assay relative to control; format: cell-based; details: HEK293 cells transfected with human ERG
hERG (KCNH2), sequence (Q12809 whole entry): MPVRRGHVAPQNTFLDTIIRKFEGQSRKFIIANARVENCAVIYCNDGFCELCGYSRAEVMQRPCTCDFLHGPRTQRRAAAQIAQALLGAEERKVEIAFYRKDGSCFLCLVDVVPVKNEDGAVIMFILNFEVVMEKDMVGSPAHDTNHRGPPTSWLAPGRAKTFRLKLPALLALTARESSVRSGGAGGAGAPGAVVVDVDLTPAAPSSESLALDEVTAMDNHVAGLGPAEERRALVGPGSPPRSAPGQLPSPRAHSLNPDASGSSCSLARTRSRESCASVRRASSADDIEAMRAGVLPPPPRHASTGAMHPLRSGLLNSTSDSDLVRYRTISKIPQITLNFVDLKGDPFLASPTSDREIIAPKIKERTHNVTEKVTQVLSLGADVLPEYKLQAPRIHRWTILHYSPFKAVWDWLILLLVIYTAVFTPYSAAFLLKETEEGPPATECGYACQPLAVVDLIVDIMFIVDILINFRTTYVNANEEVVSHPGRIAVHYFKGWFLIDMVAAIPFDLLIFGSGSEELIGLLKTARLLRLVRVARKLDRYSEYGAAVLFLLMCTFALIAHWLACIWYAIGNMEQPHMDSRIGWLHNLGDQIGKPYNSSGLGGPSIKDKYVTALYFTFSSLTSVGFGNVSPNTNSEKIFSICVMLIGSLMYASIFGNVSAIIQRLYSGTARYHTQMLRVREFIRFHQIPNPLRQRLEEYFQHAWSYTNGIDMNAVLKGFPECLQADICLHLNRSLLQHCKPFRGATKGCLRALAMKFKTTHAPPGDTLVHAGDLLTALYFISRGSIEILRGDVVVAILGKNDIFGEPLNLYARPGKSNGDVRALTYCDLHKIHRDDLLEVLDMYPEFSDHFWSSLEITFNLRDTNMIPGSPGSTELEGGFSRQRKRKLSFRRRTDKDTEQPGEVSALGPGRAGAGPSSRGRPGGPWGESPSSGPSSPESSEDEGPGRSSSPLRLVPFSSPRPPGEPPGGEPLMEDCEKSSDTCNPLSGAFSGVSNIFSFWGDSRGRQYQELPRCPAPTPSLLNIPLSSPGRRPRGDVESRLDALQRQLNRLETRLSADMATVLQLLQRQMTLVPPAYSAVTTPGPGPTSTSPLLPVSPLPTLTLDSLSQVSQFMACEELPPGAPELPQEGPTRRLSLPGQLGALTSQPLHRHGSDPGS

[4] = Acute toxicity in ICR mouse assessed as mouse survival at 500 mg/kg, po observed continuously for 4 hrs and each hr for next 24 hrs and at 8 hrs interval for following 7 days; format: organism-based; details: in vivo
[5] = Half life in SPF ICR mouse at 25 mg/kg, po measured upto 24 hrs by HPLC analysis; format: ADME, organism-based; details: in vivo
[6] = Tmax in SPF ICR mouse at 25 mg/kg, po measured upto 24 hrs by HPLC analysis; format: ADME, organism-based; details: in vivo
[7] = Cmax in SPF ICR mouse at 25 mg/kg, po measured upto 24 hrs by HPLC analysis; format: ADME, organism-based; parameters: dose 25 mg/kg, route oral; details: in vivo
[8] = AUC (0 to t) in SPF ICR mouse at 25 mg/kg, po measured upto 24 hrs by HPLC analysis; format: ADME, organism-based; parameters: dose 25 mg/kg, time < 24 hr, route oral; details: in vivo

SMILES	MIC [2]	inhibition at 10 µM [3]	further results
O=c1nc(N2CCC3(CCN(Cc4ccc(F)cc4)C3)CC2)sc2c([N+](=O)[O-])cc(C(F)(F)F)cc12	< 0.035 µM	95.7%	Activity [1]: 3.2 log10CFU
O=c1nc(N2CCC3(CCN(Cc4ccc(Br)cc4)CC3)CC2)sc2c([N+](=O)[O-])cc(C(F)(F)F)cc12	< 0.035 µM	97%	–
O=c1nc(N2CCC3(CCN(Cc4ccc(C(F)(F)F)cc4)CC3)CC2)sc2c([N+](=O)[O-])cc(C(F)(F)F)cc12	< 0.035 µM	94.6%	–
O=c1nc(N2CC3CCC2CN3Cc2ccc(F)cc2)sc2c([N+](=O)[O-])cc(C(F)(F)F)cc12 (centres undefined)	0.078 µM (≈ 0.0386 µg/mL)	34.9%	Activity [4]: Non-Toxic; half-life [5]: 75 min; Tmax [6]: 15 min; Cmax [7]: 3040 ng/mL; AUC(0-t) at 24 h [8]: 3550 ng·h/mL
O=c1nc(N2CCC3(CCN(CCc4ccc(F)cc4)C3)CC2)sc2c([N+](=O)[O-])cc(C(F)(F)F)cc12	0.055 µM (≈ 0.0295 µg/mL)	92.7%	–
O=c1nc(N2CCC3(CCN(Cc4ccncc4)C3)CC2)sc2c([N+](=O)[O-])cc(C(F)(F)F)cc12	0.122 µM (≈ 0.0617 µg/mL)	74.1%	–
O=c1nc(N2CCC3(CCN(Cc4cccc(F)c4F)C3)CC2)sc2c([N+](=O)[O-])cc(C(F)(F)F)cc12	< 0.035 µM	88.5%	–
Cn1cccc1CN1CCC2(CCN(c3nc(=O)c4cc(C(F)(F)F)cc([N+](=O)[O-])c4s3)CC2)C1	0.479 µM (≈ 0.243 µg/mL)	–	–
O=c1nc(N2CCC3(CCN(CCCc4ccc(F)cc4)C3)CC2)sc2c([N+](=O)[O-])cc(C(F)(F)F)cc12	< 0.035 µM	85.8%	–
O=c1nc(N2CCC3(CCN(Cc4ccc([N+](=O)[O-])cc4)C3)CC2)sc2c([N+](=O)[O-])cc(C(F)(F)F)cc12	< 0.035 µM	94.1%	–
COc1ccc2[nH]cc(CN3CCC4(CCN(c5nc(=O)c6cc(C(F)(F)F)cc([N+](=O)[O-])c6s5)CC4)C3)c2c1	1.48 µM (≈ 0.848 µg/mL)	–	–
O=c1nc(N2CCC3(CCN(Cc4ccccc4F)C3)CC2)sc2c([N+](=O)[O-])cc(C(F)(F)F)cc12	< 0.035 µM	94.9%	–
N#Cc1ccc(CN2CCC3(CCN(c4nc(=O)c5cc(C(F)(F)F)cc([N+](=O)[O-])c5s4)CC3)C2)cc1	< 0.035 µM	90.6%	–
O=c1nc(N2CCC3(CCN(Cc4cc(C(F)(F)F)cc(C(F)(F)F)c4)C3)CC2)sc2c([N+](=O)[O-])cc(C(F)(F)F)cc12	< 0.035 µM	83.3%	–
O=c1nc(N2CCC3(CCN(Cc4cccnc4)C3)CC2)sc2c([N+](=O)[O-])cc(C(F)(F)F)cc12	0.235 µM (≈ 0.119 µg/mL)	–	–
O=c1nc(N2CCC3(CCN(Cc4ccc([N+](=O)[O-])c(Br)c4)C3)CC2)sc2c([N+](=O)[O-])cc(C(F)(F)F)cc12	< 0.035 µM	88.6%	–
O=c1nc(N2CCC3(CCN(Cc4cccs4)C3)CC2)sc2c([N+](=O)[O-])cc(C(F)(F)F)cc12	< 0.035 µM	96.2%	–
O=c1nc(N2CCC3(CCN(c4ccc(F)cc4)C3)CC2)sc2c([N+](=O)[O-])cc(C(F)(F)F)cc12	< 0.035 µM	23%	Activity [4]: Non-Toxic; half-life [5]: 287 min; Tmax [6]: 30 min; Cmax [7]: 1610 ng/mL; AUC(0-t) at 24 h [8]: 5030 ng·h/mL

SMILES	MIC [2]	inhibition at 10 µM [3]	further results
CC(c1ccc(F)cc1)N1CCC2(CCN(c3nc(=O)c4cc(C(F)(F)F)cc([N+](=O)[O-])c4s3)CC2)CC1 (centres undefined)	0.107 µM (≈ 0.0589 µg/mL)	74%	–
O=c1nc(N2CC3CC2CN3Cc2ccc(F)cc2)sc2c([N+](=O)[O-])cc(C(F)(F)F)cc12 (centres undefined)	< 0.035 µM	94.3%	–
O=c1nc(N2CCC3(CCN(Cc4ccc5ccccc5c4)C3)CC2)sc2c([N+](=O)[O-])cc(C(F)(F)F)cc12	< 0.035 µM	78.1%	–
CC(c1ccc(Br)cc1)N1CCC2(CCN(c3nc(=O)c4cc(C(F)(F)F)cc([N+](=O)[O-])c4s3)CC2)CC1 (centres undefined)	< 0.035 µM	77.2%	–
O=c1nc(N2CCC3(CCN(Cc4cccc5ccccc45)C3)CC2)sc2c([N+](=O)[O-])cc(C(F)(F)F)cc12	0.055 µM (≈ 0.0305 µg/mL)	–	–
CC(c1ccc(Cl)cc1)N1CCC2(CCN(c3nc(=O)c4cc(C(F)(F)F)cc([N+](=O)[O-])c4s3)CC2)CC1 (centres undefined)	< 0.035 µM	73.4%	–
O=c1nc(N2CC3CN(Cc4ccc(F)cc4)CC3C2)sc2c([N+](=O)[O-])cc(C(F)(F)F)cc12 (centres undefined)	0.248 µM (≈ 0.123 µg/mL)	–	–
O=c1nc(N2CCC3(CCN(Cc4ccc[nH]4)C3)CC2)sc2c([N+](=O)[O-])cc(C(F)(F)F)cc12	1.58 µM (≈ 0.778 µg/mL)	–	–
CCC(c1ccc(C(F)(F)F)cc1)N1CCC2(CCN(c3nc(=O)c4cc(C(F)(F)F)cc([N+](=O)[O-])c4s3)CC2)CC1 (centres undefined)	< 0.035 µM	69.7%	–
O=c1nc(N2CCC3(CCN(Cc4ccccn4)C3)CC2)sc2c([N+](=O)[O-])cc(C(F)(F)F)cc12	0.477 µM (≈ 0.241 µg/mL)	–	–
O=c1nc(N2CCC3(CCN(Cc4ccc(OC(F)(F)F)cc4)C3)CC2)sc2c([N+](=O)[O-])cc(C(F)(F)F)cc12	< 0.035 µM	90.2%	–
CC(c1ccc(C(F)(F)F)cc1)N1CCC2(CCN(c3nc(=O)c4cc(C(F)(F)F)cc([N+](=O)[O-])c4s3)CC2)CC1 (centres undefined)	< 0.035 µM	72.9%	–
O=c1nc(N2CCC3(CCN(Cc4ccc(C(F)(F)F)cc4C(F)(F)F)C3)CC2)sc2c([N+](=O)[O-])cc(C(F)(F)F)cc12	< 0.035 µM	68.6%	–
O=c1nc(N2CCC3(CCN(Cc4ncco4)C3)CC2)sc2c([N+](=O)[O-])cc(C(F)(F)F)cc12	0.248 µM (≈ 0.123 µg/mL)	53.2%	–
O=c1nc(N2CCN(C3CCN(Cc4ccc(F)cc4)CC3)CC2)sc2c([N+](=O)[O-])cc(C(F)(F)F)cc12	0.054 µM (≈ 0.0298 µg/mL)	95.6%	–
NNC(=O)c1ccncc1 [ISONIAZID]	0.269 µM (≈ 0.0369 µg/mL)	–	–
O=c1nc(N2CCN(CC3CCCCC3)CC2)sc2c([N+](=O)[O-])cc(C(F)(F)F)cc12 [MACOZINONE]	< 0.035 µM	41.6%	Activity [4]: Non-Toxic; half-life [5]: 380 min; Tmax [6]: 19.8 min; Cmax [7]: 1750 ng/mL; AUC(0-t) at 24 h [8]: 2480 ng·h/mL
CO[C@H]1/C=C/O[C@@]2(C)Oc3c(C)c(O)c4c(O)c(c(/C=N/N5CCN(C)CC5)c(O)c4c3C2=O)NC(=O)/C(C)=C\C=C\[C@H](C)[C@H](O)[C@@H](C)[C@@H](O)[C@@H](C)[C@H](OC(C)=O)[C@@H]1C [RIFAMPIN]	0.164 µM (≈ 0.135 µg/mL)	–	–
